Where “and” joins values, the source holds several entries; their conditions need not be identical. Identical values can stand only once. Entries after “also recorded” stand apart in the source; their conditions may differ. Like-named read-outs stand apart in the source and are kept apart here.
Experiments:
S. mansoni schistosomula = S. mansoni schistosomula high-throughput phenotype and motility screen (Roboworm), 72 h; assay type: cell-based, Schistosoma mansoni; conditions: for EC50: Schistosoma mansoni
In short: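 Newly transformed schistosomula (S. mansoni PR-1, mechanically transformed cercariae), 120 per well, exposed to compounds at a single concentration or two-fold titrations for 72 h at 37 °C, 5% CO2.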

S. mansoni adult worms = assay: S. mansoni adult worm motility screen (WormassayGP2), 72 h; assay type: cell-based, Schistosoma mansoni; conditions: for EC50: Schistosoma mansoni
In short: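 Seven-week adult S. mansoni worms, perfused from infected mice, were exposed in duplicate (1–3 pairs/well) to […] compound in 0.5% DMSO for 72 h at 37 °C, 5% CO2. Motility was scored by image-based WormassayGP2, and eggs were counted afterwards.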

S. mansoni miracidia = S. mansoni miracidia to sporocyst transformation screen, 48 h; assay type: cell-based, Schistosoma mansoni
Text: Following hepatic portal vein perfusion of TO mice, experimentally infected 7 weeks previously, the mouse livers were collected to isolate parasite eggs. Briefly, the infected tissues were homogenised in double saline solution (1.7% w/v NaCl) using a Waring blender. The homogenates were passed through a 0.45 μm filter to retain egg material and the resulting filtered solution was collected in a volumetric flask. Miracidia hatching was induced by exposure of eggs to light in artificial river water (e.g. Lepple water). The resulting miracidial suspension was collected, washed with Chernin's balanced salt solution (CBSS) and enumerated prior to being used for in vitro miracidia to sporocyst screens, as previously described. […] Each treatment was set up in duplicate and parasites cultured in CBSS with 1% DMSO were set up as negative controls. After 48 h incubation at 26 °C, dead, fully transformed and partially transformed miracidia were enumerated as previously described [[18],[64], [65], [66]].

[1] = test system: adult S. japonicum male worms; assay: In vitro screening of S. japonicum adults at 100 nM (WormAssay motility, descriptors, severity score); assay type: cell-based, Schistosoma japonicum; set-up: key to DESCRIPTORS 48 h / DESCRIPTORS 72 h: Dark = dark; S = Slow; S-uncoord = uncoordinated slow movements; O-uncoord = uncoordinated fast movements; On sides = male worms are not adhering to dish with ventral sucker; Shrunk = worms are not flexing and are smaller than usual; Teg damage = outer surface (tegument of the worm) is damaged; Deg= degenerating; D = Dead; conditions: for Effect on S. japonicum adult male worms: 5, 24, 48 and 72 h; for SEVERITY SCORES 5 h / SEVERITY SCORES 24 h / SEVERITY SCORES 48 h / SEVERITY SCORES 72 h: max = 4, one line per replicate
Procedure: (§1) For each species, parasite recovery involved reverse perfusion of the hepatic portal and mesenteric system using DMEM (Fisher Scientific). Parasites were washed six times with Basch 169 medium supplemented with 100 U/ml penicillin and 100 μg/ml streptomycin before manually distributing approximately 5 males per well (on occasion 1 or 2 females might also be present) of a 24-well plate (Corning Costar 3524). […] The next morning, a final concentration of 100 nM compound (in 1 μL DMSO) was added to each well and the final volume made up to 2 ml with Basch 169 medium supplemented with antibiotics and FBS. Each compound was tested in triplicate (except for some instances tested in duplicate). […] The phenotypic characterisation of compound effects focused on male worms due to the greater range of their motility characteristics that include flexing, bending, stretching, sucker walking and adherence, compared to the more sedentary female worms. In addition to descriptors, WormAssay, as adapted for the schistosome, was used to measure average worm motility per well [72, 73].

[2] = test system: Adult S. haematobium worms; assay: In vitro screening of S. haematobium adults at 100 nM (WormAssay motility, descriptors, severity score); assay type: cell-based, Schistosoma haematobium; conditions: for Effect on S. haematobium adult worms: 5, 24, 48 and 72 h; for SEVERITY SCORES 5 h / SEVERITY SCORES 24 h / SEVERITY SCORES 48 h / SEVERITY SCORES 72 h: max = 4, one line per replicate
Procedure: as §1

[3] = 72 h, Table 2, average of phenotype and motility EC50, 72 h, read-out: Activity on schistosomula (EC50, μM - 72 h) Average
[4] = 72 h, Table 2, motility, 72 h, three replicate titrations (0.313–10 μM), read-out: Activity on schistosomula (EC50, μM - 72 h) M
[5] = 72 h, Table 2, phenotype, 72 h, three replicate titrations (0.313–10 μM), read-out: Activity on schistosomula (EC50, μM - 72 h) P
[6] = Table 4, Series A, read-out: Anti-schistosomal activity EC50 Schistosomula (μM) Motility
[7] = Table 4, Series A, read-out: Anti-schistosomal activity EC50 Schistosomula (μM) Phenotype
[8] = Table 4, Series A, read-out: Anti-schistosomal activity EC50 Adult (nM) Motility
[9] = Table 2, 72 h, titrations 0.0095–5 μM, WormassayGP2, read-out: Activity on adult worms (EC50, μM - 72 h) Motility
[10] = S. japonicum, one line per replicate

In the case of O=[N+]([O-])c1ccc2nc(Nc3cc(C(F)(F)F)ccc3F)c(Nc3cc(C(F)(F)F)ccc3F)nc2c1 [Compound 33, N2, N3-bis(2-fluoro-5-(trifluoromethyl)phenyl)-6-nitroquinoxaline-2,3-diamine], the EC50 (S. mansoni schistosomula; [3]) is reported as 0.15 µM, the EC50 (S. mansoni schistosomula; [4]) is reported as 0.15 µM and the EC50 (S. mansoni schistosomula; [5]) is reported as 0.15 µM. It also gave an EC50 (S. mansoni schistosomula; 72 h, Table S7, motility, 95% CI in brackets, read-out: Activity on schistosomula (EC50, µM - 72 h) (95% CI) M) of 0.15 µM, an EC50 (S. mansoni schistosomula; 72 h, Table S7, phenotype, 95% CI in brackets, read-out: Activity on schistosomula (EC50, µM - 72 h) (95% CI) P) of 0.15 µM and an EC50 (S. mansoni schistosomula; [6]) of 0.15 µM. The EC50 (S. mansoni schistosomula; [7]) was 0.15 µM, the EC50 (S. mansoni adult worms; [8]) was 5.6 nM and the EC50 (S. mansoni adult worms; [9]) was 5.6 nM. The “Effect on miracidia at 0.5 μM” value (S. mansoni miracidia; 0.5 μM, lowest concentration tested) was “parasite death”, the “Onset time on S. japonicum” value [1] was no more than 24 h and the “Effect on S. japonicum adult male worms” value [1] was “essentially lethal”. The “SEVERITY SCORES 5 h” value ([1]; S. japonicum) was 0, the “SEVERITY SCORES 24 h” value ([1]; S. japonicum, 24 h) was 0 and the “DESCRIPTORS 24 h” value ([1]; S. japonicum, 24 h, one line per replicate) was “Dark, S, on sides”. The “SEVERITY SCORES 48 h” value ([1]; S. japonicum) was 4, the “DESCRIPTORS 48 h” value [1, 10] was “Dying, deg” and the “SEVERITY SCORES 72 h” value ([1]; S. japonicum) was 4. The “DESCRIPTORS 72 h” value [1, 10] was “Dying, D”, the “Onset time on S. haematobium” value [2] was no more than 24 h and the “Effect on S. haematobium adult worms” value [2] was “best activity”. The “SEVERITY SCORES 5 h” value ([2]; S. haematobium) was 0, the “SEVERITY SCORES 24 h” value ([2]; S. haematobium, 24 h) was 2 and the “DESCRIPTORS 24 h” value ([2]; S. haematobium, 24 h, one line per replicate) was “S, on sides; also recorded: S, onsides”. For the same compound, the “SEVERITY SCORES 48 h” value ([2]; S. haematobium, 48 h) was 3, the “DESCRIPTORS 48 h” value ([2]; S. haematobium, 48 h, one line per replicate) was “S, dark on sides” and the “SEVERITY SCORES 72 h” value ([2]; S. haematobium, 72 h) was 4. The “DESCRIPTORS 72 h” value ([2]; S. haematobium, 72 h, one line per replicate) was “S, deg, on sides”.

For O=[N+]([O-])c1ccc2nc(Nc3ccc(Cl)c(Cl)c3)c(Nc3ccc(Cl)c(Cl)c3)nc2c1 [Compound 22, N^2, N^3-bis(3,4-dichlorophenyl)-6-nitroquinoxaline-2,3-diamine], the “Activity on schistosomula in the primary screen at 10 μM” value (S. mansoni schistosomula; 10 μM, 72 h) was “retained activity”, the EC50 (S. mansoni schistosomula; 72 h, Table 1, 72 h, two dose response titrations (0.313–10 μM), 95% CI in brackets, read-out: Activity on schistosomula (EC50, μM - 72 h) Motility) was 0.38 µM and the EC50 (S. mansoni schistosomula; 72 h, Table 1, 72 h, two dose response titrations (0.313–10 μM), 95% CI in brackets, read-out: Activity on schistosomula (EC50, μM - 72 h) Phenotype) was 0.4 µM. The EC50 (S. mansoni schistosomula; 72 h, Table 1, mean of phenotype and motility EC50, 72 h, read-out: Activity on schistosomula (EC50, μM - 72 h) Average) was 0.39 µM, the EC50 (S. mansoni schistosomula; [3]) was 0.44 µM and the EC50 (S. mansoni schistosomula; [4]) was 0.42 µM. The EC50 (S. mansoni schistosomula; [5]) was 0.47 µM, the EC50 (S. mansoni schistosomula; Table 3, read-out: Anti-schistosomal activity EC50 (μM) Schistosomula Motility) was 0.42 µM and the EC50 (S. mansoni schistosomula; Table 3, read-out: Anti-schistosomal activity EC50 (μM) Schistosomula Phenotype) was 0.47 µM. The EC50 (S. mansoni schistosomula; [6]) was 0.42 µM, the EC50 (S. mansoni schistosomula; [7]) was 0.47 µM and the EC50 (S. mansoni schistosomula; Table 5, Series C, read-out: Anti-schistosomal activity EC50 Schistosomula (μM) Motility) was 0.42 µM. It also gave an EC50 (S. mansoni schistosomula; Table 5, Series C, read-out: Anti-schistosomal activity EC50 Schistosomula (μM) Phenotype) of 0.47 µM, an EC50 (S. mansoni schistosomula; commercially sourced batch (c22), Fig. S7, read-out: EC50 on schistosomula, original commercially sourced compound) of 0.61 µM and an EC50 (S. mansoni schistosomula; re-synthesised batch (rs22), Fig. S7, read-out: EC50 on schistosomula, re-synthesised compound) of 0.51 µM. For the same compound, the “Effect on adult worm motility at 3.15 μM” value (S. mansoni adult worms; 3.15 μM, lowest concentration tested) was “complete cessation of worm mobility; also recorded: completely inhibited”, the “Effect on adult worm motility at 12.5 and 6.25 μM” value (S. mansoni adult worms; 12.5 and 6.25 μM) was “particularly active” and the EC50 (S. mansoni adult worms; Table 3, read-out: Anti-schistosomal activity EC50 (μM) Adult Motility) was 85 nM. For the same compound, the EC50 (S. mansoni adult worms; [8]) was 84.7 nM, the EC50 (S. mansoni adult worms; [9]) was 84.7 nM and the EC50 (S. mansoni adult worms; commercially sourced batch (c22), Fig. S7, read-out: EC50 on adult worms, original commercially sourced compound) was 68.5 nM. For the same compound, the EC50 (S. mansoni adult worms; re-synthesised batch (rs22), Fig. S7, read-out: EC50 on adult worms, re-synthesised compound) was 73.1 nM, the “Effect on miracidia at 5 μM” value (S. mansoni miracidia; 5 μM in 1% DMSO) was “not lethal” and the “Reduction of miracidia to sporocyst transformation at 5 μM compared to DMSO” value (S. mansoni miracidia; 5 μM, 48 h) was 50%. The “Miracidial transformation inhibition at 2 and 0.5 μM” value (S. mansoni miracidia; 2 and 0.5 μM, 48 h) was “about 20%”, the “Effect on miracidia at 10 and 50 μM” value (S. mansoni miracidia; 10 and 50 μM, 48 h) was “lethal” and the “Effect on S. japonicum adult male worms” value [1] was “decreased motility starting at 48 h”. For the same compound, the “SEVERITY SCORES 5 h” value ([1]; S. japonicum) was 0, the “SEVERITY SCORES 24 h” value ([1]; S. japonicum, 24 h) was 0 and the “SEVERITY SCORES 48 h” value ([1]; S. japonicum) was 1 and 2. For the same compound, the “DESCRIPTORS 48 h” value [1, 10] was “S and S, on sides”, the “SEVERITY SCORES 72 h” value ([1]; S. japonicum) was 2 and the “DESCRIPTORS 72 h” value [1, 10] was “S+, on sides”. The “Effect on S. haematobium adult worms” value [2] was “mainly inactive”, the “SEVERITY SCORES 5 h” value ([2]; S. haematobium) was 0 and the “SEVERITY SCORES 24 h” value ([2]; S. haematobium, 24 h) was 0. The “SEVERITY SCORES 48 h” value ([2]; S. haematobium, 48 h) was 0 and the “SEVERITY SCORES 72 h” value ([2]; S. haematobium, 72 h) was 0.

Source: article PMC8626775, “Anti-schistosomal activities of quinoxaline-containing compounds: From hit identification to lead optimisation” (European Journal of Medicinal Chemistry, 2021)
